In ChEMBL document CHEMBL3244265, “Preparation and biological actions of some symmetrically N,N-disubstituted dopamines” (J Med Chem, 1978):
Active and inactive are the calls of the source.

How the values were obtained:
Felis catus [1] = assay: Hypotensive activity in iv dosed cat in presence of haloperidol; assay type: functional, organism-based
Rattus norvegicus [2] = assay: Induction of hyperactivity in Sprague-Dawley rat administered into nucleus accumbens in presence of 5 mg/kg propranolol; assay type: functional, organism-based; set-up: dose 5 mg/kg
Columba livia [3] = assay: Antagonism of apomorphine-induced pecking in im dosed pigeon treated 15 mins prior to apomorphine challenge; assay type: functional
Rattus norvegicus [4] = assay: Induction of circling behaviour in sc dosed Sprague-Dawley rat assessed as duration of action; assay type: functional
Rattus norvegicus [5] = assay: Induction of hyperactivity in Sprague-Dawley rat administered into caudate putamen in presence of 5 mg/kg propranolol; assay type: functional, organism-based; set-up: dose 5 mg/kg
Rattus norvegicus [6] = assay: Induction of circling behaviour in Sprague-Dawley rat administered into caudate putamen in presence of aceperone; assay type: functional, organism-based
Rattus norvegicus [7] = assay: Induction of stereotyped behaviour in Sprague-Dawley rat administered into caudate putamen in presence of 0.2 to 0.8 mg/kg haloperidol; assay type: functional, organism-based
Rattus norvegicus [8] = assay: Induction of stereotyped behaviour in Sprague-Dawley rat administered into nucleus accumbens in presence of 5 mg/kg aceperone; assay type: functional, organism-based; set-up: dose 5 mg/kg
Columba livia [9] = assay: Induction of pecking in im dosed pigeon; assay type: functional, organism-based
Rattus norvegicus [10] = assay: Induction of hyperactivity in Sprague-Dawley rat administered into nucleus accumbens in presence of 5 mg/kg aceperone; assay type: functional, organism-based; set-up: dose 5 mg/kg
Rattus norvegicus [11] = assay: Induction of stereotyped behaviour in Sprague-Dawley rat administered into caudate putamen in presence of 5 mg/kg aceperone; assay type: functional, organism-based; set-up: dose 5 mg/kg
Rattus norvegicus [12] = assay: Induction of stereotyped behaviour in Sprague-Dawley rat administered into nucleus accumbens in presence of 5 mg/kg propranolol; assay type: functional, organism-based; set-up: dose 5 mg/kg
Rattus norvegicus [13] = assay: Induction of circling behaviour in Sprague-Dawley rat administered into nucleus accumbens in presence of haloperidol; assay type: functional, organism-based
Rattus norvegicus [14] = assay: Induction of hyperactivity in Sprague-Dawley rat administered into caudate putamen; assay type: functional, organism-based
Rattus norvegicus [15] = assay: Induction of circling behaviour in sc dosed Sprague-Dawley rat in presence of 0.8 mg/kg haloperidol; assay type: functional, organism-based; set-up: dose 0.8 mg/kg
Felis catus [16] = species: Felis catus; assay: Agonist activity at dopamine receptor in cat right atrium assessed as inhibition of cardiaccelerator nerve stimulation rate by cardiotachometer analysis; assay type: tissue-based; details: Cardiac atrium
Rattus norvegicus [17] = assay: Induction of circling behaviour in Sprague-Dawley rat administered into caudate putamen; assay type: functional, organism-based
Rattus norvegicus [18] = assay: Induction of stereotyped behaviour in Sprague-Dawley rat administered into nucleus accumbens in presence of 0.2 to 0.8 mg/kg haloperidol; assay type: functional, organism-based
Felis catus [19] = assay: Effect on heart rate in iv dosed cat; assay type: functional, organism-based
Rattus norvegicus [20] = assay: Induction of circling behaviour in Sprague-Dawley rat administered into nucleus accumbens; assay type: functional, organism-based
Rattus norvegicus [21] = assay: Induction of stereotyped behaviour in Sprague-Dawley rat at 2.5 to 20 mg/kg, sc; assay type: functional, organism-based
Rattus norvegicus [22] = assay: Induction of hyperactivity in Sprague-Dawley rat administered into nucleus accumbens; assay type: functional, organism-based
Rattus norvegicus [23] = assay: Induction of hyperactivity in Sprague-Dawley rat at 2.5 to 20 mg/kg, sc; assay type: functional, organism-based
Rattus norvegicus [24] = assay: Induction of circling behaviour in Sprague-Dawley rat administered into nucleus accumbens in presence of propranolol; assay type: functional, organism-based
Rattus norvegicus [25] = assay: Induction of stereotyped behaviour in Sprague-Dawley rat administered into nucleus accumbens; assay type: functional, organism-based
Felis catus [26] = assay: Inhibition of 2 Hz electric current-induced cardioaccelerator nerve stimulation in iv dosed cat by cardiotachometer analysis; assay type: functional
Rattus norvegicus [27] = assay: Induction of hyperactivity in Sprague-Dawley rat administered into nucleus accumbens in presence of 0.2 to 0.8 mg/kg haloperidol; assay type: functional, organism-based
Rattus norvegicus [28] = assay: Induction of stereotyped behaviour in Sprague-Dawley rat administered into caudate putamen in presence of 5 mg/kg propranolol; assay type: functional, organism-based; set-up: dose 5 mg/kg
Rattus norvegicus [29] = assay: Induction of circling behaviour in sc dosed Sprague-Dawley rat assessed as reversal of spontaneous ipsilateral to contralateral circling response; assay type: functional, organism-based
Rattus norvegicus [30] = assay: Induction of circling behaviour in sc dosed Sprague-Dawley rat in presence of 5 mg/kg propranolol; assay type: functional, organism-based; set-up: dose 5 mg/kg
Rattus norvegicus [31] = assay: Induction of circling behaviour in Sprague-Dawley rat administered into caudate putamen in presence of haloperidol; assay type: functional, organism-based
Felis catus [32] = assay: Inhibition of 2 Hz electric current-induced cardioaccelerator nerve stimulation in iv dosed cat by cardiotachometer analysis in presence of 2 mg/kg, iv phentolamine; assay type: functional, organism-based; set-up: dose 2 mg/kg; details: at 2 mg/kg
Rattus norvegicus [33] = assay: Induction of circling behaviour in sc dosed Sprague-Dawley rat assessed as onset of action; assay type: functional
Rattus norvegicus [34] = assay: Induction of circling behaviour in sc dosed Sprague-Dawley rat in presence of 5 mg/kg aceperone; assay type: functional, organism-based; set-up: dose 5 mg/kg
Rattus norvegicus [35] = assay: Induction of hyperactivity in Sprague-Dawley rat administered into caudate putamen in presence of 0.2 to 0.8 mg/kg haloperidol; assay type: functional, organism-based
Canis familiaris [36] = assay: Toxicity in dog up to 2 mg/kg, sc; assay type: organism-based, Canis lupus familiaris; set-up: dose 2 mg/kg, route subcutaneous; details: in vivo
Canis familiaris [37] = assay: Induction of emesis in sc dosed dog; assay type: functional; details: Canis lupus familiaris
Rattus norvegicus [38] = assay: Induction of circling behaviour in Sprague-Dawley rat administered into nucleus accumbens in presence of aceperone; assay type: functional, organism-based
Felis catus [39] = assay: Inhibition of 10 Hz electric current-induced cardioaccelerator nerve stimulation in iv dosed cat by cardiotachometer analysis; assay type: functional, organism-based
Felis catus [40] = assay: Hypotensive activity in iv dosed cat; assay type: functional, organism-based
Canis familiaris [41] = assay: Antagonism of apomorphine-induced emesis in sc dosed dog treated 15 mins prior to apomorphine challenge; assay type: functional, organism-based; details: Canis lupus familiaris
Rattus norvegicus [42] = assay: Induction of stereotyped behaviour in Sprague-Dawley rat administered into caudate putamen; assay type: functional, organism-based
Rattus norvegicus [43] = assay: Induction of circling behaviour in Sprague-Dawley rat administered into caudate putamen in presence of propranolol; assay type: functional, organism-based
Rattus norvegicus [44] = assay: Induction of hyperactivity in Sprague-Dawley rat administered into caudate putamen in presence of 5 mg/kg aceperone; assay type: functional, organism-based; set-up: dose 5 mg/kg
Felis catus [45] = assay: Inhibition of 2 Hz electric current-induced cardioaccelerator nerve stimulation in iv dosed cat by cardiotachometer analysis in presence of 0.2 mg/kg, iv haloperidol; assay type: functional, organism-based; set-up: dose 0.2 mg/kg; details: at 0.2 mg/kg
Rattus norvegicus [46] = assay: Induction of hyperactivity in Sprague-Dawley rat at 40 mg/kg, sc pretreated for 30 mins with 0.4 mg/kg haloperidol; assay type: functional, organism-based
Rattus norvegicus [47] = assay: Induction of stereotyped behaviour in sc dosed Sprague-Dawley rat assessed as duration of action; assay type: functional
Rattus norvegicus [48] = assay: Induction of hyperactivity in Sprague-Dawley rat at 40 mg/kg, sc pretreated for 18 hrs with 5 mg/kg reserpine and 6 hrs with 250 mg/kg alpha-methyl-p-tyrosine; assay type: functional, organism-based
Rattus norvegicus [49] = assay: Induction of hyperactivity in Sprague-Dawley rat at 40 mg/kg, sc; assay type: functional, organism-based; set-up: dose 40 mg/kg
Rattus norvegicus [50] = assay: Effect on motor function in Sprague-Dawley rat administered into caudate putamen; assay type: functional, organism-based
Rattus norvegicus [51] = assay: Induction of hyperactivity in Sprague-Dawley rat at 40 mg/kg, sc pretreated for 30 mins with 5 mg/kg aceperone; assay type: functional, organism-based
Rattus norvegicus [52] = assay: Induction of stereotyped behaviour in sc dosed Sprague-Dawley rat; assay type: functional, organism-based
Rattus norvegicus [53] = assay: Induction of stereotyped behaviour in sc dosed Sprague-Dawley rat assessed as onset of action; assay type: functional
Rattus norvegicus [54] = assay: Induction of hyperactivity in Sprague-Dawley rat at 40 mg/kg, sc pretreated for 30 mins with 5 mg/kg propranolol; assay type: functional, organism-based
Rattus norvegicus [55] = assay: Induction of stereotyped behaviour in sc dosed Sprague-Dawley rat pretreated for 30 mins with 0.4 mg/kg haloperidol; assay type: functional, organism-based; set-up: dose 0.4 mg/kg
Rattus norvegicus [56] = assay: Induction of hyperactivity in Sprague-Dawley rat at 3.13 to 50 ug administered into nucleus accumbens; assay type: functional, organism-based
Rattus norvegicus [57] = assay: Induction of stereotyped behaviour in intrastriatally dosed Sprague-Dawley rat at 3.13 to 50 ug administered into nucleus accumbens; assay type: functional, organism-based
Rattus norvegicus [58] = assay: Induction of hyperactivity in Sprague-Dawley rat at 3.13 to 50 ug administered into caudate putamen; assay type: functional, organism-based
Rattus norvegicus [59] = assay: Induction of stereotyped behaviour in intrastriatally dosed Sprague-Dawley rat at 3.13 to 50 ug administered into caudate putamen; assay type: functional, organism-based
Rattus norvegicus [60] = assay: Induction of circling behaviour in Sprague-Dawley rat at 2.5 to 20 mg/kg, sc; assay type: functional, organism-based
Canis familiaris [61] = species: Canis familiaris; assay: Inhibition of cardioaccelerator nerve stimulation in dog in presence of phentolamine; assay type: functional, organism-based; details: Canis lupus familiaris

CCN(CC)CCc1ccc(O)c(O)c1
5 min: Time (Rattus norvegicus [4])
0.041 µmol/kg: ED50 (Felis catus [26])
3 min: Time (Rattus norvegicus [33])
inactive: Activity (Felis catus [1]) | ED50 (Columba livia [3]) | Activity (Rattus norvegicus [7]) | Activity (Columba livia [9]) | Activity (Rattus norvegicus [13]) | Activity (Rattus norvegicus [15]) | Activity (Rattus norvegicus [18]) | Activity (Felis catus [19]) | Activity (Rattus norvegicus [21]) | Activity (Rattus norvegicus [23]) | Activity (Rattus norvegicus [27]) | Activity (Rattus norvegicus [31]) | Activity (Rattus norvegicus [35]) | ED50 (Canis familiaris [37]) | inhibition (Felis catus [39]) | inhibition (Canis familiaris [41]) | inhibition (Felis catus [45])
340 nM: ED50 (Felis catus [16])
active: Activity (Rattus norvegicus [2]) | Activity (Rattus norvegicus [5]) | Activity (Rattus norvegicus [6]) | Activity (Rattus norvegicus [8]) | Activity (Rattus norvegicus [10]) | Activity (Rattus norvegicus [11]) | Activity (Rattus norvegicus [12]) | Activity (Rattus norvegicus [14]) | Activity (Rattus norvegicus [17]) | Activity (Rattus norvegicus [20]) | Activity (Rattus norvegicus [22]) | Activity (Rattus norvegicus [24]) | Activity (Rattus norvegicus [25]) | Activity (Rattus norvegicus [28]) | Activity (Rattus norvegicus [29]) | Activity (Rattus norvegicus [30]) | inhibition (Felis catus [32]) | Activity (Rattus norvegicus [34]) | Activity (Rattus norvegicus [38]) | Activity (Felis catus [40]) | Activity (Rattus norvegicus [42]) | Activity (Rattus norvegicus [43]) | Activity (Rattus norvegicus [44])
Non-toxic: Activity (Canis familiaris [36])

CCCN(CCC)CCc1ccc(O)c(O)c1
5 min: Time (Rattus norvegicus [4])
inactive: Activity (Rattus norvegicus [46]) | Activity (Felis catus [1]) | Activity (Rattus norvegicus [7]) | Activity (Columba livia [9]) | Activity (Rattus norvegicus [13]) | Activity (Rattus norvegicus [15]) | Activity (Rattus norvegicus [50]) | Activity (Rattus norvegicus [18]) | Activity (Felis catus [19]) | Activity (Rattus norvegicus [27]) | Activity (Rattus norvegicus [31]) | Activity (Rattus norvegicus [35]) | Activity (Rattus norvegicus [55]) | inhibition (Felis catus [39]) | inhibition (Felis catus [45])
3 min: Time (Rattus norvegicus [33])
420 nM: ED50 (Felis catus [16])
0.068 µmol/kg: ED50 (Felis catus [26])
active: Activity (Rattus norvegicus [48]) | Activity (Rattus norvegicus [49]) | Activity (Rattus norvegicus [51]) | Activity (Rattus norvegicus [52]) Dose-dependent effect | inhibition (Felis catus [32]) | Activity (Rattus norvegicus [54]) | Activity (Felis catus [40])
<5 min: Time (Rattus norvegicus [53])
56 µmol/kg: ED50 (Columba livia [3])
10 min: Time (Rattus norvegicus [47])
1 mg/kg: ED50 (Canis familiaris [37])

CN(C)CCc1ccc(O)c(O)c1
0.024 µmol/kg: ED50 (Felis catus [26])
9.7 µmol/kg: ED50 (Columba livia [3])
70 nM: ED50 (Felis catus [16])
inactive: Activity (Rattus norvegicus [56]) | Activity (Rattus norvegicus [57]) | Activity (Columba livia [9]) | Activity (Felis catus [19]) | Activity (Rattus norvegicus [21]) | Activity (Rattus norvegicus [58]) | Activity (Rattus norvegicus [23]) | Activity (Rattus norvegicus [59]) | inhibition (Felis catus [32]) | ED50 (Canis familiaris [37]) | inhibition (Felis catus [39]) | inhibition (Canis familiaris [41]) | Activity (Rattus norvegicus [60]) | inhibition (Canis familiaris [61]) | inhibition (Felis catus [45])
Non-toxic: Activity (Canis familiaris [36])
